Experimental data: patent publication US20160160179A1, “METHOD FOR OBTAINING A POPULATION OF ISOLATED BRITE ADIPOCYTES” (INSERM (INSTITUT NATIONAL DE LA SANTÉ ET DE LA RECHERCHE …, priority 2013, published 2016)
Where a name gives a salt, the structure may show the parent alone.

Key:
[1] = tested on: whole native progenitor cells (CD45−/CD34+/CD31−); test: In vitro adipogenesis of whole native progenitor cells; format: cell-based, human; settings: 0.25 mM IBMX for 3 days, ITTC medium until day 10
Excerpt: (§1) An immuno-selection/depletion approach was developed to obtain the native progenitor cell subsets starting from 50.10^6 to 150.10^6 SVF cells. The total progenitor cell population (CD34+/CD31− cells) was obtained in two steps: immune cells were first removed using CD45 positive cell-depletion step (CD45-depletion kit from Stemcell Technologies, Grenoble, France) followed by endothelial cell depletion step using an anti-CD31-depletion kit (R&D Systems, Lille, France) according to manufacturer's protocol. To further isolate the distinct progenitor cell subsets, the Mscal-positive cells were selected from the CD45−/CD31− cells, the −/CD271 positive cells were selected from the CD45−/CD31−/MSCA1− cells and the CD45−/CD31−/MSCA1−/CD271− (−/−) cells using CD34 immuno-magnetic selection kits (MSCA1+, CD271+ and CD34+ immuno-magnetic selection kits were from Miltenyi Biotec, Paris, France). The purity of each fraction was assessed after selection by flow cytometry analyses.

[2] = tested on: MSCA1+ cells (CD45−/CD34+/CD31−/CD271+/MSCA1+); test: In vitro adipogenesis of the immunoselected MSCA1+ cell subset; format: cell-based, human; settings: IBMX stimulation
Excerpt: as §1
(§2) Total RNAs were extracted using the RNeasy kit (Qiagen). […] RNAs were reverse-transcribed using Superscript® II kit (Invitrogen). TaqMan® Primers are listed in supplemental data Table 1.
Cells or small pieces of whole AT were fixed (paraformaldehyde 4%, room temperature for 15 min for cultured cells and up to 1 h for whole AT). […]

[3] = tested on: native human AT progenitor cells
Description: 120 000 cells were plated per cm^2 in growth medium (ECGM MV) supplemented with […] penicillin-streptomycin. 48 h after seeding, medium was changed into basal defined medium (ECBM) supplemented with […] penicillin-streptomycin, 66 nmol/L Insulin, 1 nmol/L Triiodothyronine, 0.1 μg/ml human Transferrin, 100 nmol/L Cortisol (ITTC, Control) supplemented or not with 3 μmol/L Rosiglitazone or 0.25 mM isobuthylmethaxantine (IBMX). After 3 days, medium was changed and cells were maintained in ITTC medium until day 10. Cells were fixed (paraformaldehyde 4%, 15 min, RT), and stained with Bodipy 493/503 (10 μg/ml, 15 min, Invitrogen) and Hoechst 33342 (5 μg/ml, 15 min, Invitrogen). Stainings were observed by inversed fluorescent microscope (Nikon Eclipse TE300) and 5 pictures were randomly taken under 20X objective (numeric camera and acquisition software NIS-Elements 2.5 BR, Nikon®). Differentiation area (Bodipy stained area, μm^2) was measured with ImageJ software and normalized by nuclei cell number in order to obtain the differentiation area (μm^2) per cell. Total RNAs were extracted using the RNeasy kit (Qiagen). The RNA concentration was measured by fluorimetric assay (Ribogreen, Invitrogen). RNAs were reverse-transcribed using Superscript® II kit (Invitrogen). TaqMan® Primers are listed in supplemental data Table 1. The amplification reaction was done in duplicate on 15 ng of the cDNA samples in a final volume of 20 μL in 96-well reaction plates (Applied Biosystems) in a GeneAmp 7500 detection system (Applied Biosystems). All reactions were performed under the same conditions: 50° C. for 2 minutes, 95° C. for 10 minutes, 40 cycles of 95° C. for 15 seconds, and 60° C. for 1 minute. Results were analyzed with the GeneAmp 7500 software and all values were normalised to 18S rRNA levels. Progenitor cells were cultured under adipogenic conditions with or without 50 μM or 500 μM of tetramisole hydrochloride, an alkaline phosphatase inhibitor. After 3 to 10 days, Bodipy staining was performed or RNAs extracted. Progenitor cells were seeded at the density of 90000/cm2 cells in 12 well-plates. After 24 hours, cells were transfected with 500 ng/mL of MISSION® esiRNA against tissue non-specific alkaline phosphatase (MSCA1) or GFP as negative control with 1 μL of lipofectamine® 2000 (invitrogen) in 1 mL of basal medium. After 12 hours, medium was removed and cells were rinsed once with PBS and cultured under adipogenic conditions for 3 to 10 days and RNAs were extracted.

[4] = tested on: Progenitor cells; test: BMP7 adipogenic culture protocol; format: cell-based, human; settings: 50 ng/mL for 2 days, then 9 days in ITTC
Description: Progenitor cells were treated during 2 days with recombinant human BMP7 (50 ng/mL) then 9 days in adipogenic medium (ITTC).
MSCA1 gene expression and activity were measured. UCP1 gene expression was measured by RT-PCR.
as §2

CC(C)Cn1c(=O)n(C)c(=O)c2[nH]cnc21 [IBMX, 3-isobutyl-1-methylxanthine]
differentiation [1]: only slightly and insignificantly increased
differentiation (lipid laden cells) ([2]; 0.25 mM): marked appearance of lipid laden cells
UCP1-positive cell clusters ([2]; immunofluorescence): only found in cells from the MSCA1+ subset

c1ccc(C2CN3CCSC3=N2)cc1 (stereo not shown) [tetramisole, tetramisole hydrochloride]
total number of nucleated cells ([3]; 50 μM or 500 μM, adipogenic culture conditions): without altering
adipocyte differentiation ([3]; 50 μM or 500 μM, adipogenic culture conditions, Bodipy staining): concentration-dependent decrease
expression of adipogenic and adipocyte-specific genes after the commitment period ([3]; day 3): No statistically significant effect
expression of adipogenic transcription factors PPARγ2, CHREBP, C/EBPα and adipocyte-specific genes LPL, GPDH, PLIN1 ([3]; day 10): decreased

B1: BMP7: recombinant human BMP7, a Bone Morphogenetic Protein (protein, UniProt P18075 293-431, looked up)
Bone morphogenetic protein 7: STGSKQRSQNRSKTPKNQEALRMANVAENSSSDQRQACKKHELYVSFRDLGWQDWIIAPEGYAAYYCEGECAFPLNSYMNATNHAIVQTLVHFINPETVPKPCCAPTQLNAISVLYFDDSSNVILKKYRNMVVRACGCH
activity of the MSCA1 gene [4]: significantly increased
expression of the MSCA1 gene [4]: significantly increased
UCP1 gene expression ([4]; RT-PCR): significant increase
